# Assays:
# [1] = test system: HCV genotype 1a (H77 strain) replicon in HUH-7 cells; assay: HCV replicon luciferase reporter assay, genotype 1a; type: cell-based; conditions: Hepatitis C virus, Huh-7, 72 h, HCV genotype 1a replicon luciferase assay, 3 days incubation, range class, read-out: LE_1a (EC50, range)
# Summary of the method: (§1)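 Replicon inhibition for both genotypes was measured as Renilla luciferase signal (EnduRen, 7.5 μM final, 2 h) after 3-day, 37° C exposure of replicon-bearing HUH-7 cells in 4% FCS DMEM, 0.5% DMSO. The 1b construct carries S1179I; the 1a H77 construct carries P1496L and S2204I. Twenty-point, 3-fold dilutions were fitted four-parametrically for EC50, and CC50 was taken from multiplexed Cell Titer-Blue.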
# [2] = test system: HCV genotype 1b (Con1) replicon in HUH-7 cells; assay: HCV replicon luciferase reporter assay, genotype 1b; type: cell-based; conditions: Hepatitis C virus, Huh-7, 72 h, HCV genotype 1b replicon luciferase assay, 3 days incubation, range class, read-out: LE_1b (EC50, range)
# Summary of the method: as §1
Structure (SMILES),EC50 [1] [nM],EC50 [2] [nM]
"COc1ccc2c(O[C@@H]3C[C@H]4C(=O)N[C@]5(C(=O)NS(=O)(=O)C6CC6)C[C@H]5/C=C\CC[C@@H](C)C[C@@H](C)[C@H](NC(=O)O[C@H](C)C(F)(F)F)C(=O)N4C3)nc(N(C)C)cc2c1 [Compound 3134, (R)-1,1,1-trifluoropropan-2-yl ((2R,6S,7R,9R,13aS,14aR,16aS,Z)-14a-((cyclopropylsulfonyl)carbamoyl)-2-((3-(dimethylamino)-6-methoxyisoquinolin-1-yl)oxy)-7,9-dimethyl-5,16-dioxo-1,2,3,5,6,7,8,9,10,11,13a,14,14a,15,16,16a-hexadecahydrocyclopropa[e]pyrrolo[1,2-a][1,4]diazacyclopentadecin-6-yl)carbamate]",< 5.46,< 5.46
"COc1cnc(O[C@@H]2C[C@H]3C(=O)N[C@]4(C(=O)NS(=O)(=O)C5(C)CC5)C[C@H]4/C=C\CC[C@H](C)C[C@@H](C)[C@H](NC(=O)OC(C)(C)C)C(=O)N3C2)c2ccc(N(C)C)cc12 [Compound 3135, tert-butyl ((2R,6S,7R,9S,13aS,14aR,16aS,Z)-2-((6-(dimethylamino)-4-methoxyisoquinolin-1-yl)oxy)-7,9-dimethyl-14a-(((1-methylcyclopropyl)sulfonyl)carbamoyl)-5,16-dioxo-1,2,3,5,6,7,8,9,10,11,13a,14,14a,15,16,16a-hexadecahydrocyclopropa[e]pyrrolo[1,2-a][1,4]diazacyclopentadecin-6-yl)carbamate]",< 5.46,< 5.46
"COc1cnc(O[C@@H]2C[C@H]3C(=O)N[C@]4(C(=O)NS(=O)(=O)C5(C)CC5)C[C@H]4/C=C\CC[C@@H](C)C[C@@H](C)[C@H](NC(=O)OC(C)(C)C)C(=O)N3C2)c2ccc(N(C)C)cc12 [Compound 3136, tert-butyl ((2R,6S,7R,9R,13aS,14aR,16aS,Z)-2-((6-(dimethylamino)-4-methoxyisoquinolin-1-yl)oxy)-7,9-dimethyl-14a-(((1-methylcyclopropyl)sulfonyl)carbamoyl)-5,16-dioxo-1,2,3,5,6,7,8,9,10,11,13a,14,14a,15,16,16a-hexadecahydrocyclopropa[e]pyrrolo[1,2-a][1,4]diazacyclopentadecin-6-yl)carbamate]",< 5.46,< 5.46
"COc1cnc(O[C@@H]2C[C@H]3C(=O)N[C@]4(C(=O)NS(=O)(=O)C5(C)CC5)C[C@H]4/C=C\CC[C@H](C)C[C@@H](C)[C@H](NC(=O)OC(C)(C)C(F)(F)F)C(=O)N3C2)c2ccc(N(C)C)cc12 [Compound 3137, 1,1,1-trifluoro-2-methylpropan-2-yl((2R,6S,7R,9S,13aS,14aR,16aS,Z)-2-((6-(dimethylamino)-4-methoxyisoquinolin-1-yl)oxy)-7,9-dimethyl-14a-(((1-methylcyclopropyl)sulfonyl)carbamoyl)-5,16-dioxo-1,2,3,5,6,7,8,9,10,11,13a,14,14a,15,16,16a-hexadecahydrocyclopropa[e]pyrrolo[1,2-a][1,4]diazacyclopentadecin-6-yl)carbamate]",< 5.46,< 5.46
"COc1cnc(O[C@@H]2C[C@H]3C(=O)N[C@]4(C(=O)NS(=O)(=O)C5(C)CC5)C[C@H]4/C=C\CC[C@@H](C)C[C@@H](C)[C@H](NC(=O)OC(C)(C)C(F)(F)F)C(=O)N3C2)c2ccc(N(C)C)cc12 [Compound 3138, 1,1,1-trifluoro-2-methylpropan-2-yl((2R,6S,7R,9R,13aS,14aR,16aS,Z)-2-((6-(dimethylamino)-4-methoxyisoquinolin-1-yl)oxy)-7,9-dimethyl-14a-(((1-methylcyclopropyl)sulfonyl)carbamoyl)-5,16-dioxo-1,2,3,5,6,7,8,9,10,11,13a,14,14a,15,16,16a-hexadecahydrocyclopropa[e]pyrrolo[1,2-a][1,4]diazacyclopentadecin-6-yl)carbamate]",< 5.46,< 5.46
"CCOc1ccc2c(O[C@@H]3C[C@H]4C(=O)N[C@]5(C(=O)NS(=O)(=O)C6(C)CC6)C[C@H]5/C=C\CC[C@H](C)C[C@@H](C)[C@H](NC(=O)OC(C)(C)C(F)(F)F)C(=O)N4C3)ncc(OC)c2c1 [Compound 3139, 1,1,1-trifluoro-2-methylpropan-2-yl((2R,6S,7R,9S,13aS,14aR,16aS,Z)-2-((6-ethoxy-4-methoxyisoquinolin-1-yl)oxy)-7,9-dimethyl-14a-(((1-methylcyclopropyl)sulfonyl)carbamoyl)-5,16-dioxo-1,2,3,5,6,7,8,9,10,11,13a,14,14a,15,16,16a-hexadecahydrocyclopropa[e]pyrrolo[1,2-a][1,4]diazacyclopentadecin-6-yl)carbamate]",< 5.46,< 5.46
"CCOc1ccc2c(O[C@@H]3C[C@H]4C(=O)N[C@]5(C(=O)NS(=O)(=O)C6(C)CC6)C[C@H]5/C=C\CC[C@@H](C)C[C@@H](C)[C@H](NC(=O)OC(C)(C)C(F)(F)F)C(=O)N4C3)ncc(OC)c2c1 [Compound 3140, 1,1,1-trifluoro-2-methylpropan-2-yl((2R,6S,7R,9R,13aS,14aR,16aS,Z)-2-((6-ethoxy-4-methoxyisoquinolin-1-yl)oxy)-7,9-dimethyl-14a-(((1-methylcyclopropyl)sulfonyl)carbamoyl)-5,16-dioxo-1,2,3,5,6,7,8,9,10,11,13a,14,14a,15,16,16a-hexadecahydrocyclopropa[e]pyrrolo[1,2-a][1,4]diazacyclopentadecin-6-yl)carbamate]",< 5.46,< 5.46
"COc1cnc(O[C@@H]2C[C@H]3C(=O)N[C@]4(C(=O)NS(=O)(=O)C5(CF)CC5)C[C@H]4/C=C\CC[C@H](C)C[C@@H](C)[C@H](NC(=O)OC(C)(C)C)C(=O)N3C2)c2ccc(N(C)C)cc12 [Compound 3141, tert-butyl ((2R,6S,7R,9S,13aS,14aR,16aS,Z)-2-((6-(dimethylamino)-4-methoxyisoquinolin-1-yl)oxy)-14a-(((1-(fluoromethyl)cyclopropyl)sulfonyl)carbamoyl)-7,9-dimethyl-5,16-dioxo-1,2,3,5,6,7,8,9,10,11,13a,14,14a,15,16,16a-hexadecahydrocyclopropa[e]pyrrolo[1,2-a][1,4]diazacyclopentadecin-6-yl)carbamate]",< 5.46,< 5.46
"COc1cnc(O[C@@H]2C[C@H]3C(=O)N[C@]4(C(=O)NS(=O)(=O)C5(CF)CC5)C[C@H]4/C=C\CC[C@@H](C)C[C@@H](C)[C@H](NC(=O)OC(C)(C)C)C(=O)N3C2)c2ccc(N(C)C)cc12 [Compound 3142, tert-butyl ((2R,6S,7R,9R,13aS,14aR,16aS,Z)-2-((6-(dimethylamino)-4-methoxyisoquinolin-1-yl)oxy)-14a-(((1-(fluoromethyl)cyclopropyl)sulfonyl)carbamoyl)-7,9-dimethyl-5,16-dioxo-1,2,3,5,6,7,8,9,10,11,13a,14,14a,15,16,16a-hexadecahydrocyclopropa[e]pyrrolo[1,2-a][1,4]diazacyclopentadecin-6-yl)carbamate]",< 5.46,< 5.46
"COc1cnc(O[C@@H]2C[C@H]3C(=O)N[C@]4(C(=O)NS(=O)(=O)C5(CF)CC5)C[C@H]4/C=C\CC[C@H](C)C[C@@H](C)[C@H](NC(=O)OC(C)(C)C(F)(F)F)C(=O)N3C2)c2ccc(N(C)C)cc12 [Compound 3143, 1,1,1-trifluoro-2-methylpropan-2-yl((2R,6S,7R,9S,13aS,14aR,16aS,Z)-2-((6-(dimethylamino)-4-methoxyisoquinolin-1-yl)oxy)-14a-(((1-(fluoromethyl)cyclopropyl)sulfonyl)carbamoyl)-7,9-dimethyl-5,16-dioxo-1,2,3,5,6,7,8,9,10,11,13a,14,14a,15,16,16a-hexadecahydrocyclopropa[e]pyrrolo[1,2-a][1,4]diazacyclopentadecin-6-yl)carbamate]",< 5.46,< 5.46
"COc1cnc(O[C@@H]2C[C@H]3C(=O)N[C@]4(C(=O)NS(=O)(=O)C5(CF)CC5)C[C@H]4/C=C\CC[C@@H](C)C[C@@H](C)[C@H](NC(=O)OC(C)(C)C(F)(F)F)C(=O)N3C2)c2ccc(N(C)C)cc12 [Compound 3144, 1,1,1-trifluoro-2-methylpropan-2-yl((2R,6S,7R,9R,13aS,14aR,16aS,Z)-2-((6-(dimethylamino)-4-methoxyisoquinolin-1-yl)oxy)-14a-(((1-(fluoromethyl)cyclopropyl)sulfonyl)carbamoyl)-7,9-dimethyl-5,16-dioxo-1,2,3,5,6,7,8,9,10,11,13a,14,14a,15,16,16a-hexadecahydrocyclopropa[e]pyrrolo[1,2-a][1,4]diazacyclopentadecin-6-yl)carbamate]",< 5.46,< 5.46
"COc1cnc(O[C@@H]2C[C@H]3C(=O)N[C@]4(C(=O)NS(=O)(=O)C5(CF)CC5)C[C@H]4/C=C\CC[C@H](C)C[C@@H](C)[C@H](NC(=O)OC(C)(C)C)C(=O)N3C2)c2ccc(F)cc12 [Compound 3145, tert-butyl ((2R,6S,7R,9S,13aS,14aR,16aS,Z)-2-((6-fluoro-4-methoxyisoquinolin-1-yl)oxy)-14a-(((1-(fluoromethyl)cyclopropyl)sulfonyl)carbamoyl)-7,9-dimethyl-5,16-dioxo-1,2,3,5,6,7,8,9,10,11,13a,14,14a,15,16,16a-hexadecahydrocyclopropa[e]pyrrolo[1,2-a][1,4]diazacyclopentadecin-6-yl)carbamate]",4.82 to 103,4.82 to 103
"COc1cnc(O[C@@H]2C[C@H]3C(=O)N[C@]4(C(=O)NS(=O)(=O)C5(CF)CC5)C[C@H]4/C=C\CC[C@@H](C)C[C@@H](C)[C@H](NC(=O)OC(C)(C)C)C(=O)N3C2)c2ccc(F)cc12 [Compound 3146, tert-butyl ((2R,6S,7R,9R,13aS,14aR,16aS,Z)-2-((6-fluoro-4-methoxyisoquinolin-1-yl)oxy)-14a-(((1-(fluoromethyl)cyclopropyl)sulfonyl)carbamoyl)-7,9-dimethyl-5,16-dioxo-1,2,3,5,6,7,8,9,10,11,13a,14,14a,15,16,16a-hexadecahydrocyclopropa[e]pyrrolo[1,2-a][1,4]diazacyclopentadecin-6-yl)carbamate]",< 5.46,< 5.46

# — US9499550B2 (BRISTOL-MYERS SQUIBB COMPANY, priority 2012, dated 2016)
